From publication PMC12308784, “Organometallic Half-Sandwich Complexes of 1,10-Phenanthroline Derivatives with Improved Solubility, Albumin-Binding, and Nanoformulation Potential Targeting Drug Resistance in Cancer” (Inorganic Chemistry, 2025)
Where two headings read alike, the source gives them in different places.

How the values were obtained:
MCF-7 = experiment: PrestoBlue cytotoxicity assay; type: cell-based; conditions: for pIC50 (mean): Table S5
Procedure: (§1) MDA-MB-231 breast adenocarcinoma and MCF-7 and T-47D invasive breast carcinomas were purchased from the Developmental Therapeutic Program of the National Cancer Institute (NIH, USA), and they were cultured in RPMI medium (Thermo Fisher). MES–SA and MES–SA/Dx5 uterine sarcoma cell lines were purchased from American Type Culture Collection and were kept in DMEM (Thermo Fisher). MES–SA/B1 was created by the transfection of the human MDR1 gene in MES–SA, and MES–SA mCherry, MES–SA/B1 mOrange, and MES–SA/Dx5 eGFP were engineered to stably express the respective fluorescent proteins, as described previously. Culture media were supplemented with 10% fetal bovine serum, 2 mM L-glutamine, 100 units/mL penicillin, and 100 μg/mL streptomycin (Thermo Fisher). Cells were kept at 37 °C under 5% CO2 and were negative for mycoplasma infection.
(§2) Cytotoxicity of the nonfluorescent cancer cells (MDA-MB-231, MCF-7, T-47D) were assessed with PrestoBlue cell viability reagent (Thermo Fisher). Briefly, 2500 cells/well were seeded on 384-well plates, and then the next day drugs were added. After 72 h incubation, PrestoBlue was added in a 10% final concentration, and after an hour of additional incubation, plates were measured with a PerkinElmer EnSpire plate reader at 555 nm/585 nm excitation/emission wavelengths. Fluorescent cells (MES-SA mCherry, MES-SA/B1 mOrange, MES-SA/Dx5 eGFP) were admixed before seeding on 384-well plates at 800 cells/well density each, thus altogether 2400 cells/well. Drugs were added the following day, and the intensity of the fluorescent proteins were measured after 144 h incubation at the respective fluorescent channels (excitation/emission: eGFP: 485 nm/510 nm; mCherry: 585 nm/610 nm; mOrange: 545 nm/567 nm). pIC50 values were calculated by a custom program written by Judit Sessler in C#. IC50 values and standard deviation were calculated from average pIC50 values from at least 3 independent measurements. Since the IC50 values were obtained through nonlinear regression fitting of the viability vs. log(concentration) data, the resulting confidence intervals are inherently asymmetric (see pIC50 values and their corresponding SD in Tables S5 and S6).

MDA-MB-231 = experiment: PrestoBlue cytotoxicity assay; type: cell-based; conditions: for pIC50 (mean): Table S5
Procedure: as §1, §2

T47D = experiment: PrestoBlue cytotoxicity assay; type: cell-based; conditions: for pIC50 (mean): Table S5
Procedure: as §1, §2

[1] = pKa of the coordinated aqua ligand by UV–vis pH titration; type: physicochemical; conditions: [M(arene/arenyl)(ligand)(H2O)]2+; chloride-free; I = 0.2 M KNO3; t = 25 °C
Procedure: The K a values of the complexes with BP and DCP ligands for the [M(η^6-arene/η^5-arenyl)(ligand)(H2O)]^2+ ⇌ [M(η^6-arene/η^5-arenyl)(ligand)(OH)]^+ + H^+ process also provide valuable insights into their behavior in aqueous solutions. In order to determine the K a values, UV–vis spectra were recorded at different pH values under chloride-free conditions, as shown for the complex RuCymDCP in Figure , and the determined pK a values are presented in Table . […] However, at higher pH values, spectral shifts indicate the onset of aqua ligand deprotonation. For RuCym complexes, the calculated pK a values (Table ) indicate moderate acidity and a higher tendency for deprotonation at physiological pH compared with the RhCp* complexes. […] This lower value is most likely due to the stronger tendency of IrCp*, as well as RuCym, to undergo hydrolysis compared to RhCp*.
An Agilent Cary 8454 diode array spectrophotometer was utilized to obtain UV–vis spectra in the wavelength range 190–1100 nm; the path length was 1 cm. The concentrations of the complexes were between 20 and 100 μM. The actual pH of the samples were measured with an Orion 710A pH-meter equipped with a Metrohm combined electrode (type 6.0234.100) and the pH titrations were performed by a KOH solution using a Metrohm 665 Dosimat buret at 25.0 °C. […] The computer program HypSpec was used to calculate the equilibrium constants.

[2] = molecular target: T1, HSA Sudlow’s site II (IIIA subdomain) (Homo sapiens, UniProt P02768); experiment: dansylglycine (DG) site marker displacement on HSA; type: binding; conditions: HSA–DG 1:1; PBS’; t = 25 °C
T1 construct: purchased Sigma-Aldrich A8763
T1 sequence (P02768 25-609): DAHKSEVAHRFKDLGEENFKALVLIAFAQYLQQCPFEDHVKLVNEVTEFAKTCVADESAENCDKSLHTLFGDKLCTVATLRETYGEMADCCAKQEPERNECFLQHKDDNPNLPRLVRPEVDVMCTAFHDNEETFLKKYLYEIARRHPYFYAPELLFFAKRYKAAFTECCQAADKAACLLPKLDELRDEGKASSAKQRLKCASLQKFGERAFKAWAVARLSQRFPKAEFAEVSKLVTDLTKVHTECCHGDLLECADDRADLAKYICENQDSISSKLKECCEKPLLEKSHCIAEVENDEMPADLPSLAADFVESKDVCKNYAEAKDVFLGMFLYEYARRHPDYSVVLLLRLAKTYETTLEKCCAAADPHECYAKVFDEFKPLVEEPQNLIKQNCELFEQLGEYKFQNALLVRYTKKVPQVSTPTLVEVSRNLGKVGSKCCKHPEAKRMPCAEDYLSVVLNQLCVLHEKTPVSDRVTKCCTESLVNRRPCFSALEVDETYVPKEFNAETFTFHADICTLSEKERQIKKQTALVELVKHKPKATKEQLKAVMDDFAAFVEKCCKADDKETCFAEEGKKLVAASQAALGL
Procedure: To further explore the binding affinity and site specificity of the metal complexes, site marker displacement experiments were conducted using WF and DG, which bind to Sudlow’s site I (in IIA subdomain) and to Sudlow’s site II (in IIIA subdomain), respectively. The displacement of these fluorescence probes directly confirms the interactions of the metal complexes with the respective binding sites. The displacement constants of WF (KWF′) by the metal complexes (Figure c,d, Table ) were correlated with the Trp-214 quenching data.
Fluorescence measurements were carried out on a Fluoromax (Horiba Jobin Yvon) spectrofluorometer using a 1 cm × 1 cm quartz cuvette in order to assess the interactions of the complexes with HSA in PBS’ medium at 25 °C. The calculated quenching or displacement conditional constants for the HSA-complex species were obtained using the computer program HypSpec. Calculations always were based on data obtained from at least two independent measurements. Self-absorbance and inner filter effect had to be taken into account, and corrections were made as it was described in our former works. ,
Table S7. Conditions applied for steady -state spectrofluorometric measurements.
cHSA cMARKER ccomplex λEX λEM slit widths
(μM) (μM) (μM) (nm) (nm) EX/EM […]
S.; Deflon, V. M.; Ferreira, A. G.; Cominetti, M. R.; Batista, A. A. Cytotoxicity of Ru(II) Piano-
Stool Complexes with Chloroquine and Chelating Ligands against Breast and Lung Tumor Cells:
Interactions with DNA and BSA. J Inorg Biochem 2015, 153, 150–161.
Van Deun, R.; Van Hecke, K. Antitumor Activity of Organoruthenium Complexes with Chelate

[3] = Homo sapiens, MCF7, 72 h, 384-well plate, read-out: IC50
[4] = Homo sapiens, MCF7, Table S5, read-out: pIC50 (mean) (converted)
[5] = Homo sapiens, 72 h, 384-well plate, read-out: IC50
[6] = Homo sapiens, Table S5, read-out: pIC50 (mean) (converted)
[7] = 72 h, 384-well plate, read-out: IC50

Compound | IC50 (MCF-7; [3]) | IC50 (MCF-7; [4]) | IC50 (MDA-MB-231; [5]) | IC50 (MDA-MB-231; [6]) | IC50 (T47D; [5]) | IC50 (T47D; [6]) | pK a [ML(H2O)] [1] | DG displacement / interaction with Sudlow’s site II [2] | IC50 (MCF-7; [7]) | pIC50 (mean) (MCF-7) | IC50 (MDA-MB-231; [7]) | pIC50 (mean) (MDA-MB-231) | IC50 (T47D; [7]) | pIC50 (mean) (T47D)
c1ccc(-c2ccnc3c2ccc2c(-c4ccccc4)ccnc23)cc1 [BP, 4,7-diphenyl-1,10-phenanthroline] | 0.59 µM | 0.589 µM | 0.76 µM | 0.759 µM | 0.63 µM | 0.631 µM |  |  |  |  |  |  |  | 
Clc1ccnc2c1ccc1c(Cl)ccnc12 [DCP, 4,7-dichloro-1,10-phenanthroline] | 3.84 µM | 3.8 µM | 5.09 µM | 5.13 µM | 4.29 µM | 4.27 µM |  |  |  |  |  |  |  | 
Cc1c(C)c(C)[c-](C)c1C.Clc1ccnc2c1ccc1c(Cl)ccnc12.[Cl-].[Cl-].[Rh+3] [RhCp*DCP, [Rh(III)(η^5-C5Me5)(4,7-dichloro-1,10-phenanthroline)Cl]Cl] |  |  |  |  |  |  | 8.33 ± 0.05 | no significant interaction | 5.92 µM | 5.23 | 7.56 µM | 5.12 | 7.36 µM | 5.13
Cc1ccc(C(C)C)cc1.[Cl-].[Cl-].[Ru+2].c1ccc(-c2ccnc3c2ccc2c(-c4ccccc4)ccnc23)cc1 [RuCymBP, [Ru(II)(η^6-p-cymene)(bathophenanthroline)Cl]Cl] |  |  |  |  |  |  | 7.57 ± 0.06 | no significant interaction | 1.93 µM | 5.71 | 1.23 µM | 5.91 | 1.86 µM | 5.73
Cc1ccc(C(C)C)cc1.Clc1ccnc2c1ccc1c(Cl)ccnc12.[Cl-].[Cl-].[Ru+2] [RuCymDCP, [Ru(II)(η^6-p-cymene)(4,7-dichloro-1,10-phenanthroline)Cl]Cl] |  |  |  |  |  |  | 7.21 ± 0.06 | no significant interaction | 76.4 µM | 4.12 | > 100 µM |  | 75 µM | 4.13
[Rh(III)(η^5-C5Me5)(bathophenanthroline)Cl]Cl [RhCp*BP] |  |  |  |  |  |  | 8.81 ± 0.06 | able to displace the DG | 14.9 µM | 4.83 | 4.68 µM | 5.33 | 5.28 µM | 5.28
